In the CheMixHub viscosity set:
Values joined by “and” are separate entries in the source; they are usually repeats but may differ in a detail not shown here. Identical values can stand only once.

Assay: xn = mol fraction of the nth substance listed

C1CCCC1 + CCC(C)O
101 kPa
Conditions	viscosity [mPa·s]
298.15 K, x1 = 0.0967	2.238
298.15 K, x1 = 0.1932	1.702
298.15 K, x1 = 0.2298	1.578
298.15 K, x1 = 0.2524	1.454
298.15 K, x1 = 0.3078	1.253
298.15 K, x1 = 0.3627	1.081
298.15 K, x1 = 0.4215	0.936
298.15 K, x1 = 0.5078	0.7825
298.15 K, x1 = 0.5772	0.6742
298.15 K, x1 = 0.7238	0.5339
298.15 K, x1 = 0.8256	0.4728
298.15 K, x1 = 0.9298	0.4297
308.15 K, x1 = 0.0075	2.095
308.15 K, x1 = 0.047	1.917
308.15 K, x1 = 0.0598	1.7
308.15 K, x1 = 0.0917	1.552
308.15 K, x1 = 0.107	1.509
308.15 K, x1 = 0.2217	1.298
308.15 K, x1 = 0.2626	1.177
308.15 K, x1 = 0.3099	1.049
308.15 K, x1 = 0.3653	0.8998
308.15 K, x1 = 0.4219	0.8068
308.15 K, x1 = 0.496	0.6842
308.15 K, x1 = 0.5716	0.5943
308.15 K, x1 = 0.6554	0.5084
308.15 K, x1 = 0.7457	0.4481
308.15 K, x1 = 0.845	0.4249
308.15 K, x1 = 0.9255	0.3819
308.15 K, x1 = 0.9753	0.3779

C1CCCC1 + CC(C)CCO
viscosity [mPa·s], 101 kPa
Conditions	298.15 K	308.15 K
x1 = 0.0443	3.482	2.238
x1 = 0.0808	3.173	2.06
x1 = 0.1182	2.966	1.962
x1 = 0.2087	2.37	1.573
x1 = 0.3063	1.857	1.278
x1 = 0.3959	1.511	1.09
x1 = 0.521	1.086	0.7741
x1 = 0.616	0.8169	0.6771
x1 = 0.7042	0.6669	0.5329
x1 = 0.8044	0.5675	0.4453
x1 = 0.8984	0.4649	0.3966
x1 = 0.9358	0.4361	0.3784
x2 = 0.0075	0.4035	0.353

CCC(=O)CC + CCCCN
303.15 K, 101.33 kPa
Conditions	viscosity [mPa·s]
x2 = 0.1145	0.519
x2 = 0.2006	0.59
x2 = 0.3211	0.678
x2 = 0.417	0.735
x2 = 0.5421	0.784
x2 = 0.7264	0.752
x2 = 0.8234	0.681
x2 = 0.8922	0.62

OCc1ccccc1 + OCCO
293.15 K, 101.33 kPa
Conditions	viscosity [mPa·s]
x2 = 0.0946	7.031
x2 = 0.1648	7.627
x2 = 0.1834	7.781
x2 = 0.2979	8.824
x2 = 0.4721	10.98
x2 = 0.5503	12.18
x2 = 0.6255	13.48
x2 = 0.6888	14.69
x2 = 0.7556	16.05
x2 = 0.7929	16.82
x2 = 0.8219	17.42
x2 = 0.8789	18.75
x2 = 0.9113	19.36

C1CCCC1 + CC(C)CO
viscosity [mPa·s], 101 kPa
Conditions	298.15 K	308.15 K
x1 = 0.0603	2.848	1.934
x1 = 0.1025	2.58	1.68
x1 = 0.1812	2.236	1.478
x1 = 0.2538	1.84	1.237
x1 = 0.3617	1.355	0.9824
x1 = 0.4947	0.9586	0.7014
x1 = 0.5816	0.8054	0.6185
x1 = 0.6617	0.6549	0.5283
x1 = 0.7863	0.5622	0.4429
x1 = 0.8809	0.4552	0.3863
x1 = 0.9205	0.4381	0.3695
x1 = 0.9474	0.4233	0.3609

CCC(=O)CC + COC(=O)c1ccccc1
viscosity [mPa·s], 101 kPa
Conditions	x2 = 0.0869	x2 = 0.176	x2 = 0.2669	x2 = 0.3636	x2 = 0.4616	x2 = 0.5586	x2 = 0.6631	x2 = 0.7718	x2 = 0.8792
303.15 K	0.486	0.557	0.634	0.722	0.822	0.932	1.07	1.235	1.422
313.15 K	0.43	0.485	0.548	0.619	0.7	0.79	0.896	1.025	1.169

NCCO + OCCO
101.33 kPa
Conditions	viscosity [mPa·s]
293.15 K, x2 = 0.1246	29.94
293.15 K, x2 = 0.2055	32.9
293.15 K, x2 = 0.2907	35.07
293.15 K, x2 = 0.4172	36.01
293.15 K, x2 = 0.496	34.47
293.15 K, x2 = 0.5176	33.73
293.15 K, x2 = 0.6654	29.06
293.15 K, x2 = 0.701	28.14
293.15 K, x2 = 0.789	25.17
293.15 K, x2 = 0.8248	23.8
293.15 K, x2 = 0.8691	22.48
293.15 K, x2 = 0.9427	21.11
293.15 K, x2 = 0.9527	20.92
303.15 K, x1 = 0.155	16.74
303.15 K, x1 = 0.303	19.61
313.15 K, x1 = 0.155	11.41
313.15 K, x1 = 0.303	13.08
323.15 K, x1 = 0.155	8.112
323.15 K, x1 = 0.303	9.172

c1ccc(-c2ccccc2)cc1 + c1ccccc1
298.15 K, 101 kPa
Conditions	viscosity [mPa·s]
x1 = 0.1006	0.7585
x1 = 0.1824	0.9014
x1 = 0.3638	1.298

OCc1ccccc1 + Cc1ccccc1
viscosity [mPa·s]
Conditions	293.15 K	303.15 K	313.15 K	323.15 K
100 kPa, x1 = 0.1006	0.699	–	–	–
100 kPa, x1 = 0.1997	0.851	–	–	–
100 kPa, x1 = 0.3007	1.051	–	–	–
100 kPa, x1 = 0.402	1.329	–	–	–
100 kPa, x1 = 0.502	1.717	–	–	–
100 kPa, x1 = 0.6	2.158	–	–	–
100 kPa, x1 = 0.6925	2.764	–	–	–
100 kPa, x1 = 0.7994	3.659	–	–	–
100 kPa, x1 = 0.8995	4.821	–	–	–
101 kPa, x2 = 0.0973	–	3.563	2.793	2.117
101 kPa, x2 = 0.1952	–	2.788	2.237	1.73
101 kPa, x2 = 0.2937	–	2.226	1.781	1.403
101 kPa, x2 = 0.3927	–	1.758	1.44	1.157
101 kPa, x2 = 0.4924	–	1.386	1.15	0.9401
101 kPa, x2 = 0.5927	–	1.107	0.9561	0.7918
101 kPa, x2 = 0.6936	–	0.8989	0.7776	0.6576
101 kPa, x2 = 0.7951	–	0.7359	0.6508	0.5456
101 kPa, x2 = 0.8972	–	0.6154	0.5511	0.4771

CCCCCCCCCCCCCC[P+](CCCCCC)(CCCCCC)CCCCCC.[O-]c1ccccc1 + O
Conditions	viscosity [mPa·s]
298.15 K, 100 kPa, x2 = 0.69	183

NCCO + CN1CCCC1=O
viscosity [mPa·s], 101 kPa
Conditions	293.15 K	298.15 K	303.15 K	308.15 K	313.15 K	318.15 K	323.15 K
x1 = 0.1558	2.99	2.712	2.484	2.293	2.133	1.996	–
x1 = 0.3001	3.547	3.176	2.869	2.612	2.397	2.218	2.065
x1 = 0.4204	4.72	4.121	3.633	3.236	2.909	2.638	2.415
x2 = 0.2076	–	–	10.07	–	6.755	–	5.018
x2 = 0.4003	–	–	6.647	–	4.811	–	3.622
x2 = 0.5994	–	–	4.361	–	3.317	–	2.559
x2 = 0.7992	–	–	2.604	–	2.118	–	1.799

CCOC(=O)CC#N + N#CCc1ccccc1
viscosity [mPa·s], 101 kPa
Conditions	x2 = 0.1383	x2 = 0.4842	x2 = 0.8426
303.15 K	2.135	1.995	–
313.15 K	–	–	1.535

NCCO + CC(C)O
viscosity [mPa·s], 100 kPa
Conditions	x1 = 0.1	x1 = 0.2	x1 = 0.3	x1 = 0.4	x1 = 0.5	x1 = 0.6	x1 = 0.7	x1 = 0.8	x1 = 0.9
303.15 K	2.11	2.53	3.08	3.86	4.9	6.12	7.7	9.55	11.9
313.15 K	1.63	1.92	2.31	2.88	3.55	4.35	5.37	6.54	7.97
323.15 K	1.27	1.49	1.78	2.21	2.65	3.22	3.89	4.69	5.64

OCc1ccccc1 + CC(C)=O
viscosity [mPa·s], 101 kPa
Conditions	x1 = 0.2007	x1 = 0.2986	x1 = 0.4007	x1 = 0.5002	x1 = 0.7013	x1 = 0.9003
303.15 K	0.506	0.651	0.894	1.204	2.122	3.544
308.15 K	0.495	0.632	0.861	1.11	1.857	3.118
313.15 K	0.479	0.603	0.807	1.054	1.74	2.826

OCc1ccccc1 + c1ccccc1
Conditions	viscosity
293.15 K, 101.32 kPa, x1 = 0.03068	0.6725 mPa·s
293.15 K, 101.32 kPa, x1 = 0.04509	0.6903 mPa·s
293.15 K, 101.32 kPa, x1 = 0.1059	0.7825 mPa·s
293.15 K, 101.32 kPa, x1 = 0.1545	0.8652 mPa·s
293.15 K, 101.32 kPa, x1 = 0.1997	0.9735 mPa·s
298.15 K, 101.33 kPa, x1 = 0.1	0.7 mPa·s
298.15 K, 101.33 kPa, x1 = 0.2	0.855 mPa·s and 0.855 mPa·s
298.15 K, 101.33 kPa, x1 = 0.5	1.712 mPa·s and 1.712 mPa·s
298.15 K, 101.33 kPa, x1 = 0.8	3.267 mPa·s
303.15 K, 101 kPa, x1 = 0.1079	0.8732 mPa·s
303.15 K, 101 kPa, x1 = 0.2167	1.03 mPa·s
303.15 K, 101 kPa, x1 = 0.3472	1.291 mPa·s
303.15 K, 101 kPa, x1 = 0.4657	1.601 mPa·s
303.15 K, 101 kPa, x1 = 0.5516	1.877 mPa·s
303.15 K, 101 kPa, x1 = 0.6577	2.306 mPa·s
303.15 K, 101 kPa, x1 = 0.7244	2.653 mPa·s
303.15 K, 101 kPa, x1 = 0.868	3.594 mPa·s
303.15 K, 101 kPa, x1 = 0.9178	3.983 mPa·s
308.15 K, 101.33 kPa, x1 = 0.1	0.597 mPa·s
308.15 K, 101.33 kPa, x1 = 0.2	0.714 mPa·s
308.15 K, 101.33 kPa, x1 = 0.5	1.379 mPa·s
308.15 K, 101.33 kPa, x1 = 0.8	2.433 mPa·s
318.15 K, 101.33 kPa, x1 = 0.1	0.526 mPa·s
318.15 K, 101.33 kPa, x1 = 0.2	0.617 mPa·s
318.15 K, 101.33 kPa, x1 = 0.5	1.139 mPa·s
318.15 K, 101.33 kPa, x1 = 0.8	1.904 mPa·s
323.15 K, 101.33 kPa, x1 = 0.1	0.493 mPa·s
323.15 K, 101.33 kPa, x1 = 0.2	0.578 mPa·s and 0.575 mPa·s
323.15 K, 101.33 kPa, x1 = 0.5	1.026 mPa·s and 1.026 mPa·s
323.15 K, 101.33 kPa, x1 = 0.8	1.695 mPa·s
